Common to all, as to assay: KINOMEscan
What all share (type): binding
Conditions in all cases: read-out: % control activity remaining

The target of one assay is T1, CAMK2G (Homo sapiens, UniProt Q13555).
T1 construct: purchased Eurofins DiscoverX KINOMEscan

The next assay addresses T2, CDKL1 (Homo sapiens, UniProt Q00532).
T2 construct: purchased Eurofins DiscoverX KINOMEscan

A further assay deals with T3, ULK1 (Homo sapiens, UniProt O75385).
T3 construct: purchased Eurofins DiscoverX KINOMEscan
T3 sequence (O75385 1-1050): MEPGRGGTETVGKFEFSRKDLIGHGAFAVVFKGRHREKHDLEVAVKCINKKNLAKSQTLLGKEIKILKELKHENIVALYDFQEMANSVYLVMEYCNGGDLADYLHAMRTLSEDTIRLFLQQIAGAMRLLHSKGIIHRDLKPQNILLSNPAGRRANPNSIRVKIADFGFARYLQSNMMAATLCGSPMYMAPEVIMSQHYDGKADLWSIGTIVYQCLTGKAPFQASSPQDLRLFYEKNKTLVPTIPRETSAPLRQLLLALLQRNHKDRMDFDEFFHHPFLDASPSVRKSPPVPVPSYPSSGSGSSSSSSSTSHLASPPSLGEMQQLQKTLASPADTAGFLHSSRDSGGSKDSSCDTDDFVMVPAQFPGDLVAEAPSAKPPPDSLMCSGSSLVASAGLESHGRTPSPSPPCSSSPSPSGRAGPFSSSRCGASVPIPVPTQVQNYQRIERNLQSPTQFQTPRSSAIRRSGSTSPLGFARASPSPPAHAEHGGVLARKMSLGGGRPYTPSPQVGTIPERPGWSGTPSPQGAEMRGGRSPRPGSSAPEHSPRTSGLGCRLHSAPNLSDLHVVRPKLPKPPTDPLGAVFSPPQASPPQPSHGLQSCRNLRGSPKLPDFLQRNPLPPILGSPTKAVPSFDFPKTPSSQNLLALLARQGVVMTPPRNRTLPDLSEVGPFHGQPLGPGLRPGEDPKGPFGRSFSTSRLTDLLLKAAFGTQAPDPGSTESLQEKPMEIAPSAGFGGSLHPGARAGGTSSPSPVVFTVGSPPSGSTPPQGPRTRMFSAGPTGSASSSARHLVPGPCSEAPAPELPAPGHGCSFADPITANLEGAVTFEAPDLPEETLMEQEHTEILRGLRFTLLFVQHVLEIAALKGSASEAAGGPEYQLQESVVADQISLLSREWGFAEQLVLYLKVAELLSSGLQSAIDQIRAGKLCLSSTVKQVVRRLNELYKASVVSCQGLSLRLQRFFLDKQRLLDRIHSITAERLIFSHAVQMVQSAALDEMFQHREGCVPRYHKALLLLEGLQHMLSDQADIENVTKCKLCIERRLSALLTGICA

The next assay addresses T4, RET(M918T) (Homo sapiens, UniProt P07949, M918T).
T4 construct: purchased Eurofins DiscoverX KINOMEscan

A further assay has as its target T5, RIOK2 (Homo sapiens, UniProt Q9BVS4).
T5 construct: purchased Eurofins DiscoverX KINOMEscan

The target in assay [1] is T6, RPS6KA4(Kin.Dom.1-N-terminal) (Homo sapiens, UniProt O75676).
T6 construct: RPS6KA4(Kin.Dom.1-N-terminal); purchased Eurofins DiscoverX KINOMEscan
T6 sequence (O75676 33-301 limits assumed): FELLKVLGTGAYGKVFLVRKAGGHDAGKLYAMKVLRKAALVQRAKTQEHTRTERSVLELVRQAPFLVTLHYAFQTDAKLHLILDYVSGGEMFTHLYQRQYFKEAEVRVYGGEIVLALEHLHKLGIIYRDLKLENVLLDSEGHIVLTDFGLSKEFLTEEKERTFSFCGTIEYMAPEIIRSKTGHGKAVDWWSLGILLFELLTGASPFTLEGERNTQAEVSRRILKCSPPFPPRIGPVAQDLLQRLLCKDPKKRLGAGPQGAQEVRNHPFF

In a further assay the target is T7, KIT(V559D,T670I) (Homo sapiens, UniProt P10721, T670I/V559D).
T7 construct: purchased Eurofins DiscoverX KINOMEscan

Another assay concerns the target T8, NEK3 (Homo sapiens, UniProt P51956).
T8 construct: purchased Eurofins DiscoverX KINOMEscan
T8 sequence (P51956 1-506): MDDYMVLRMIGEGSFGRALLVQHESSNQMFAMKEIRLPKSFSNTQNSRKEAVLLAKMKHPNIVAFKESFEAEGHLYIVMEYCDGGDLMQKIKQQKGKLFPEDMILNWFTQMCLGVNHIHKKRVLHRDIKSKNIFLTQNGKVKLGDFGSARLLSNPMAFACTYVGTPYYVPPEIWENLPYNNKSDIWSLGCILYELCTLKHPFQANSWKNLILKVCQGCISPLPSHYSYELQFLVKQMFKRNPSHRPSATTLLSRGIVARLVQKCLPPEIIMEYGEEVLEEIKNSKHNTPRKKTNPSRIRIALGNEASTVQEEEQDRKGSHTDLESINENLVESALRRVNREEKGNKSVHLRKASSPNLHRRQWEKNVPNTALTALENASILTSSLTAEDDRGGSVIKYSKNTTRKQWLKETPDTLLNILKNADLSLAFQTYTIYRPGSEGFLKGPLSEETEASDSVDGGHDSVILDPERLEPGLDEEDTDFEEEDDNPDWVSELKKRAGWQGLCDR

The target of the next assay is T9, AURKB (Homo sapiens, UniProt Q96GD4).
T9 construct: purchased Eurofins DiscoverX KINOMEscan

Another assay concerns the target T10, PIK3CA(E545A) (Homo sapiens, UniProt P42336, E545A).
T10 construct: purchased Eurofins DiscoverX KINOMEscan

The next assay deals with T11, TESK1 (Homo sapiens, UniProt Q15569).
T11 construct: purchased Eurofins DiscoverX KINOMEscan

A further assay addresses T12, FGFR2 (Homo sapiens, UniProt P21802).
T12 construct: purchased Eurofins DiscoverX KINOMEscan

T1 sequence (Q13555 whole entry): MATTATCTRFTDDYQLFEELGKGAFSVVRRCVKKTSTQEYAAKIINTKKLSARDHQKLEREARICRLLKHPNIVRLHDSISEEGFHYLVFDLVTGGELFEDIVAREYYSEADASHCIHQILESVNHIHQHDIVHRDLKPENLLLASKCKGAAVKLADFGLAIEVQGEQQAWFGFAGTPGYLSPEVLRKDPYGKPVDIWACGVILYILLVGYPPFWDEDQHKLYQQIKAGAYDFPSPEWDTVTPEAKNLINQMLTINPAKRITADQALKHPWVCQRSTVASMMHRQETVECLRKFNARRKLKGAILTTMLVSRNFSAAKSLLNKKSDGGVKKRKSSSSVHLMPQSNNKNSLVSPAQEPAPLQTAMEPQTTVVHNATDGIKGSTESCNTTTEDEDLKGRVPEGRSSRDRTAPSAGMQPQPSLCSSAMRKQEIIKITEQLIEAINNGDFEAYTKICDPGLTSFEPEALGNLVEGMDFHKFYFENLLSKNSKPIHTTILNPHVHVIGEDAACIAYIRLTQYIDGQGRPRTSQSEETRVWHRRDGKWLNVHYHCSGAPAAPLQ
T5 sequence (Q9BVS4 whole entry): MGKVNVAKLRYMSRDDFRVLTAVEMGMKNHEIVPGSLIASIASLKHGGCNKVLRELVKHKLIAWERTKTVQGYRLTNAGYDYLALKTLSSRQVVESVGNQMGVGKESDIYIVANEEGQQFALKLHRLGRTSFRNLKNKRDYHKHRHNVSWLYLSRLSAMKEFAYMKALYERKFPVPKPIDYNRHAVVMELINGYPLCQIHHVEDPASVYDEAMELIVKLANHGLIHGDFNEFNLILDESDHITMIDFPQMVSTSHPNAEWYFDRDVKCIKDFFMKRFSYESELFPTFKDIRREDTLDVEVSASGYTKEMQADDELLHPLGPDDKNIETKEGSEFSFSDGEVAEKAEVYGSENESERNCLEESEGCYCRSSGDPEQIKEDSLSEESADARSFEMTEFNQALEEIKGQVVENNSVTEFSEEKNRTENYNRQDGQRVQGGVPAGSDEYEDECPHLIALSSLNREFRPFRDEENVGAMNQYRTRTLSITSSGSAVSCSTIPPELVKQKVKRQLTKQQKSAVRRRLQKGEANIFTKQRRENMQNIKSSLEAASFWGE
T12 sequence (P21802 22-821): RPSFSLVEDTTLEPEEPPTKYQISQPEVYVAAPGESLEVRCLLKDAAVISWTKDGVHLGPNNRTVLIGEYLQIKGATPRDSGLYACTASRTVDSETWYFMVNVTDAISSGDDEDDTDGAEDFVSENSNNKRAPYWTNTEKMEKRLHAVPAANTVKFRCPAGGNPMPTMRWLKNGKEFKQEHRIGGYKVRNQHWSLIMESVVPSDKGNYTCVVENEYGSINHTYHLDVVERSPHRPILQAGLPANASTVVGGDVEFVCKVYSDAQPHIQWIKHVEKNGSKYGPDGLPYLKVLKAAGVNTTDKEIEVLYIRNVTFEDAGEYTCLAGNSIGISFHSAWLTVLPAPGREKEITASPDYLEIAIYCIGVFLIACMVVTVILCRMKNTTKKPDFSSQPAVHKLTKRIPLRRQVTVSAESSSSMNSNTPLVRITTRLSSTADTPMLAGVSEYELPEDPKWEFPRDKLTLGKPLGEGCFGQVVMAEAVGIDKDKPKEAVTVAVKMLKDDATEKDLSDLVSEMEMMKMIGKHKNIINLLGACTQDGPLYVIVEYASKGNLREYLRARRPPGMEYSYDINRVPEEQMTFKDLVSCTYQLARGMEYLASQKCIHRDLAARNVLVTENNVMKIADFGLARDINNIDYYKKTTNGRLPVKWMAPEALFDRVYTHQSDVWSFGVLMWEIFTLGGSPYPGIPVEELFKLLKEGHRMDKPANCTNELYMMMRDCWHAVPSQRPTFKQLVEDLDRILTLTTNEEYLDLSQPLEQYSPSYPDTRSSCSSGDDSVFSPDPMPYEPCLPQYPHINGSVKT
T11 sequence (Q15569 whole entry): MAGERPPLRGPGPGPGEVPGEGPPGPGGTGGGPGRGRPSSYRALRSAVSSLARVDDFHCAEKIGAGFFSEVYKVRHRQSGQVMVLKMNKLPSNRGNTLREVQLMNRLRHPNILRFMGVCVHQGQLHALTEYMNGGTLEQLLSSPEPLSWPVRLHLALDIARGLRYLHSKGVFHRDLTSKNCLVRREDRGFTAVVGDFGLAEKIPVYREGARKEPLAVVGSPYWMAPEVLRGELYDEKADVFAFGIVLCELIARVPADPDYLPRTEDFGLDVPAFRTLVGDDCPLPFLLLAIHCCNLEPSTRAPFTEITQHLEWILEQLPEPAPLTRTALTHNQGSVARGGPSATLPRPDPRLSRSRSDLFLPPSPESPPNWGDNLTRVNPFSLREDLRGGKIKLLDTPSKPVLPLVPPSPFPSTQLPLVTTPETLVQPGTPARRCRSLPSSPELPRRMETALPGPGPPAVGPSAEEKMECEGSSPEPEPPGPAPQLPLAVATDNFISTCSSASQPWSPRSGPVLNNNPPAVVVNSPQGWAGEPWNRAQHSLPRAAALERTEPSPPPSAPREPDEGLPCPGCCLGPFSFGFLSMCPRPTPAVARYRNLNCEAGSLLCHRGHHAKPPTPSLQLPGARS
T4 sequence (P07949 29-1114 M918T): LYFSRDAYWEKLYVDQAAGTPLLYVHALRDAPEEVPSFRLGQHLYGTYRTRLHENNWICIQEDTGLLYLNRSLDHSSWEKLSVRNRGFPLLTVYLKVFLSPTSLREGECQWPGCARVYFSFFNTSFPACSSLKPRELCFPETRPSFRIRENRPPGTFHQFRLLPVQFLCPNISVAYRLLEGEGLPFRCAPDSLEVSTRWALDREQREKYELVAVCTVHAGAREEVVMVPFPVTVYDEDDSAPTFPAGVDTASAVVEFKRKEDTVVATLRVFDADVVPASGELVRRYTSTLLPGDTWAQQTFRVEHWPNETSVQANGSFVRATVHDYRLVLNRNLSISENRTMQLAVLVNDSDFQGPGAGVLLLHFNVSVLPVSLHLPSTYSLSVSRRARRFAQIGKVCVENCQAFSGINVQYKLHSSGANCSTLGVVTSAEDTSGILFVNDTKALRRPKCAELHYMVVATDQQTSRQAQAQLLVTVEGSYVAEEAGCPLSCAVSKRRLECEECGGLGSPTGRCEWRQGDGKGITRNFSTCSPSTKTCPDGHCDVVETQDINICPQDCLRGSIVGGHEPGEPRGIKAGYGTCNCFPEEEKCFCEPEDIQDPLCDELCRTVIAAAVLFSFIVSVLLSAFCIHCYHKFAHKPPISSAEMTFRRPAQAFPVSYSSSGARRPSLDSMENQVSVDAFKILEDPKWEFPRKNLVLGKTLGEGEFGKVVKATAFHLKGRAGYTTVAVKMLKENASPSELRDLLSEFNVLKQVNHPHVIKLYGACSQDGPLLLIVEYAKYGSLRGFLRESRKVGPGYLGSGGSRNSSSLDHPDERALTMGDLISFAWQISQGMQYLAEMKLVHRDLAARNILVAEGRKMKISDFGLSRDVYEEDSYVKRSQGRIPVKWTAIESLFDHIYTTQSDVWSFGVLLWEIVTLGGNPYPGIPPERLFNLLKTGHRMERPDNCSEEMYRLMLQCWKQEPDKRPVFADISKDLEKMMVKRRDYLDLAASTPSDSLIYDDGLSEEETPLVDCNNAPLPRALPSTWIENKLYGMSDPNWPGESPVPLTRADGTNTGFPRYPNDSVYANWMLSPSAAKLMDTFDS
T9 sequence (Q96GD4 whole entry): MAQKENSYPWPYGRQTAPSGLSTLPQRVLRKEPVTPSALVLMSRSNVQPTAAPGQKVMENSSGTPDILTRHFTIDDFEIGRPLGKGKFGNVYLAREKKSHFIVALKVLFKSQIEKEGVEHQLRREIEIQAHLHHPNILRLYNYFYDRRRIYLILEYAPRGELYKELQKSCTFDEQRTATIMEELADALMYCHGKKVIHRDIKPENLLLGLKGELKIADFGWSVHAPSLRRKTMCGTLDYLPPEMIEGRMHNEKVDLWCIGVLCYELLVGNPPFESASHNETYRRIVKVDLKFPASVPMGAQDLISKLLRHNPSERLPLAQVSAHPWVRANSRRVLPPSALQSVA
T7 sequence (P10721 26-976 V559D/T670I): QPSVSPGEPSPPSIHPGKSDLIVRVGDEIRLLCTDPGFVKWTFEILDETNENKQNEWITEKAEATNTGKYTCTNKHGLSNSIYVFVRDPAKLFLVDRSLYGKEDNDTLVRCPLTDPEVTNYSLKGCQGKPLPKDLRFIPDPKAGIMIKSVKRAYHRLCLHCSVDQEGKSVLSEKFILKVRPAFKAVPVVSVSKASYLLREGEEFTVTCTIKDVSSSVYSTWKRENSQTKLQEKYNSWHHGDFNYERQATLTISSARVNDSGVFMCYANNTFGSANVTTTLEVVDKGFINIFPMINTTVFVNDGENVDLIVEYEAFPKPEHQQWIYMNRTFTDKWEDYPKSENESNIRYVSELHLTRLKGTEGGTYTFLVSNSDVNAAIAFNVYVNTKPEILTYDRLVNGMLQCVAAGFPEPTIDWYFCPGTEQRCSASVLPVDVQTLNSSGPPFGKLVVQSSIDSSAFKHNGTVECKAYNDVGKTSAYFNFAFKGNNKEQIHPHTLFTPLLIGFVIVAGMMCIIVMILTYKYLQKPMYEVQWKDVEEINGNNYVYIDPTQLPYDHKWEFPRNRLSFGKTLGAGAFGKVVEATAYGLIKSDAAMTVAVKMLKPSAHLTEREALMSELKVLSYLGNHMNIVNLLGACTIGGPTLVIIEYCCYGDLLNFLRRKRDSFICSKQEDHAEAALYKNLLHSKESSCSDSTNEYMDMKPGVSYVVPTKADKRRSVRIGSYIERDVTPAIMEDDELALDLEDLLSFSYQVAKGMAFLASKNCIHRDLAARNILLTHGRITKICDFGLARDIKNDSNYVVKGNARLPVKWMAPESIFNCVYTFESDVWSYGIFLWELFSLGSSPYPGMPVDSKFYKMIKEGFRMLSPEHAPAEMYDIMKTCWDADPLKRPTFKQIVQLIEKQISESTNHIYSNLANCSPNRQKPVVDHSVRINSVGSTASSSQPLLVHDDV

Take `Clc1cc(NCC2CC2)c2ncc(-c3ccc4[nH]ncc4c3)n2n1` [compound 2, 6-Chloro-N-(cyclopropylmethyl)-3-(1H-indazol-5-yl)imidazo[1,2-b]pyridazin-8-amine]: the remaining binding at 1 µM at CAMK2G was found to be 100%; at CDKL1 it was 74%; on ULK1, 78%; on RET(M918T), 100%; on RIOK2 it was 70%; in assay [1], 100%. In addition, the remaining binding at 1 µM was found to be 20% at KIT(V559D,T670I); 93% on NEK3; 90% on AURKB; 88% at PIK3CA(E545A); 92% on TESK1; 85% on FGFR2.

Consider `O=C(CN1CCOCC1)N[C@H]1CC[C@H](Nc2cc(Cl)nn3c(-c4ccc5[nH]ncc5c4)cnc23)CC1` [compound 26], for which the remaining binding at 1 µM worked out at 52% at CAMK2G; 90% at CDKL1; 97% on ULK1; 92% on RET(M918T); 67% at RIOK2; 99% in [1]. For the same molecule, the remaining binding at 1 µM on KIT(V559D,T670I) stood at 0.85%; on NEK3, 88%; at AURKB it was 55%; on PIK3CA(E545A), 100%; at TESK1, 91%; on FGFR2, 91%.

Take `CN1CCC(CNc2cc(Cl)nn3c(-c4cc5nc(Nc6ccccc6)[nH]c5cc4F)cnc23)CC1` [compound 31, 6-Chloro-3-(6-fluoro-2-(phenylamino)-1H-benzo[d]imidazol-5-yl)-N-((1-methylpiperidin-4-yl)methyl)imidazo[1,2-b]pyridazin-8-amine]: the remaining binding at 1 µM on CAMK2G came out at 100%; on CDKL1, 67%; at ULK1, 79%; on RET(M918T), 80%; at RIOK2, 61%; in [1], 91%. Further, the remaining binding at 1 µM is 97% on KIT(V559D,T670I); 100% on NEK3; 83% on AURKB; 78% on PIK3CA(E545A); 100% on TESK1; 84% on FGFR2.

These data come from paper PMC6437697 (Journal of Medicinal Chemistry, 2019).
